Tests used:
Type in all cases: in vivo
C57BLKS db/db mice [1] = assay: 56 days study: fasting blood glucose and oral glucose tolerance; details: for Blood glucose 15 min after glucose application: 1 g/kg oral glucose; for Blood glucose fasting: fasted 24 h
Protocol: (§1) Female C57BLKS db/db mice obtained from M&B A/S (8680 Ry, Denmark) were used In the studies at 10 to 11 weeks of age. Mice were housed 10 per cage and allowed free access to water and chow (chow 3433, Provimi Kliba SA, 4303 Kaiseraugst, Switzerland).
(§2) Mice were allowed to acclimate to the local animal facilities for 1 week and retro-orbital blood samples were obtained 3 to 7 days prior to the start of the study.
(§3) Mice were treated with vehicle or a selected PDE4 inhibitor compound once daily in the morning. The selective PDE4 inhibitor compounds to be tested were suspended in 4% methocel and applied via oral gavage using oral feeding & dosing needles (outer diameter: 1.5 mm, TSE GmbH, 61350 Bad Homburg, Germany). A volume of 10 ml/kg body weight was administered for each dose.
(§4) 56 days studies: Mice were treated with vehicle or a selected PDE4 inhibitor compound once daily in the morning. On day 55, mice were fasted for 24 hours by removing chow 1 hour after drug application. On day 56, fasting blood glucose levels were measured and glucose tolerance was assessed by oral application of 1 g/kg/10 ml glucose. Blood was sampled 15 minutes after glucose application and levels of glucose (accu-chek, Roche Diagnostics GmbH, 68298 Mannheim, Germany) and lactate (lactate reagent, Sigma-Aldrich GmbH, 82039 Deisenhofen, Germany) were measured.

C57BLKS db/db mice [2] = assay: 10 days study: oral glucose tolerance, blood glucose 15 minutes after glucose application; details: fasted 24 h, 15 minutes after 1 g/kg oral glucose
Protocol: as §1, §2, §3
as §4, with “10” for “56”, “9,” for “55,”, “10,” for “56, fasting blood glucose levels were measured and”, “Germany)” for “Germany) and lactate (lactate reagent, Sigma-Aldrich GmbH, 82039 Deisenhofen, Germany)”

C57BLKS db/db mice [3] = assay: 56 days study: lactate levels, fasting and after glucose application; details: for Lactate 15 min after glucose application: 1 g/kg oral glucose; for Lactate fasting: serum, fasted 24 h
Protocol: as §1, §2, §3, §4

Compound | Blood glucose 15 min after glucose application (C57BLKS db/db mice [1]; 3 mg/kg oral once daily) | Blood glucose fasting (C57BLKS db/db mice [1]; 3 mg/kg oral once daily) | Blood glucose 15 min after glucose application (C57BLKS db/db mice [1]; 30 mg/kg oral once daily) | Blood glucose fasting (C57BLKS db/db mice [1]; 30 mg/kg oral once daily) | Blood glucose (C57BLKS db/db mice [2]; 3 mg/kg oral once daily) | Blood glucose (C57BLKS db/db mice [2]; 30 mg/kg oral once daily) | Lactate 15 min after glucose application (C57BLKS db/db mice [3]; 3 mg/kg oral once daily) | Lactate 15 min after glucose application (C57BLKS db/db mice [3]; 30 mg/kg oral once daily) | Lactate fasting (C57BLKS db/db mice [3]; 3 mg/kg oral once daily) | Lactate fasting (C57BLKS db/db mice [3]; 30 mg/kg oral once daily)
COc1cc2c(cc1OC)[C@@H]1CCCC[C@@H]1N=C2c1ccc(OCC2CC2)c(OCC2CC2)c1 [COMPOUND A, (−)-cis-8,9-Dimethoxy-6-[3,4-bis-(cyclopropylmethoxy)phenyl]-1,2,3,4,4a,10b-hexahydrophenanthridine] | 580 mg/dL | 279 mg/dL | 352 mg/dL | 193 mg/dL | 507 mg/dL | 411.5 mg/dL | 70 mg/dL | 61 mg/dL | 49 mg/dL | 43 mg/dL
COc1cc2c(cc1OC)[C@@H]1CCCC[C@@H]1N=C2c1ccc(C(=O)c2ccccc2)cc1 [COMPOUND B, (−)-cis-8,9-Dimethoxy-6-(4-benzoylphenyl)-1,2,3,4,4a,10b-hexahydrophenanthridine] | – | – | – | – | 362 mg/dL | 251 mg/dL | – | – | – | –
COc1cc2c(cc1OC)[C@@H]1CCCC[C@@H]1N=C2c1ccc(C(=O)O)cc1.Cl [COMPOUND C, (+)-cis-8,9-Dimethoxy-6-(4-carboxyphenyl)-1,2,3,4,4a,10b-hexahydrophenanthridine Hydrochloride] | – | – | – | – | 506 mg/dL | 449 mg/dL | – | – | – | –
CCn1nnc(-c2ccc(C3=N[C@H]4CCCC[C@H]4c4cc(OC)c(OC)cc43)cc2)n1 [COMPOUND D, (−)-cis-6-[4-(2-Ethyl-2H-tetrazol-5-yl)-phenyl]-8,9-dimethoxy-1,2,3,4,4a,10b-hexahydrophenanthridine] | – | – | – | – | 437 mg/dL | 285 mg/dL | – | – | – | –
